From article PMC10999543, “Identification of kinase modulators as host-directed therapeutics against intracellular methicillin-resistant Staphylococcus aureus” (Frontiers in Cellular and Infection Microbiology, 2024)
Like-named read-outs stand apart in the source and are kept apart here.

What was measured:
[1] = tested on: intracellular MRSA; format: cell-based, Staphylococcus aureus; settings: for %GFP+ rep 1 / z-scoreMRSA+ rep 1: replicate 1; for %GFP+ rep 2 / z-scoreMRSA+ rep 2: replicate 2; for %GFP+ rep 3 / z-scoreMRSA+ rep 3: replicate 3; for z-scoreMRSA+ mean: mean of 3 replicates
How it was run: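 HeLa cells infected with GFP-MRSA (MOI ~6.8), gentamicin-cleared, then incubated overnight at 37°C with inhibitors plus 5 µg/ml gentamicin; DMSO as negative control, triplicates. Flow cytometry gave % GFP-positive cells and cell count (viability surrogate); hits by plate z-score (MRSA ≤ -2, HeLa count ≥ -3).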

[2] = tested on: HeLa cells; test: Compound screen by flow cytometry: HeLa cell count as surrogate readout of cell viability (z-scoreHeLa); format: cell-based, human; settings: for cell count rep 1 / z-scoreHeLa rep 1: replicate 1; for cell count rep 2 / z-scoreHeLa rep 2: replicate 2; for cell count rep 3 / z-scoreHeLa rep 3: replicate 3; for z-scoreHeLa mean: mean of 3 replicates
How it was run: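 HeLa cells were infected with GFP-MRSA (mean MOI 6.8 ± 4.6) for 1 h, and extracellular bacteria were killed with 30 µg/ml gentamicin. Cells were then incubated overnight with kinase inhibitors in 5 µg/ml gentamicin, in triplicate against DMSO controls. Flow-cytometric cell count served as a viability surrogate, expressed as a plate z-score.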

[3] = PKIS compound screen raw data, MRSA-infected HeLa cells
[4] = Yes/No: effect without cell death
[5] = compound screen, MRSA-infected HeLa cells
[6] = PKIS compound screen raw data, HeLa cell count
[7] = compound screen, HeLa cell count
[8] = PKIS compounds raw data, MRSA-infected HeLa cells
[9] = PKIS compounds raw data, HeLa cell count
[10] = PKIS compound screen, MRSA-infected HeLa cells
[11] = PKIS compound screen, Yes/No call (effect without cell death)
[12] = PKIS compound screen, Yes/No call on z-scoreMRSA+
[13] = PKIS compound screen, HeLa cell count
[14] = PKIS compound screen, Yes/No call on z-scoreHeLa
[15] = PKIS compound screen, Yes/No call

c1ccc(-c2n[nH]cc2-c2ccnc(-c3ccc(CNC4CCOCC4)cc3)c2)nc1 [GW709213X]
%GFP+ rep 1 [1, 3]: 20.2%
%GFP+ rep 2 [1, 3]: 23.4%
%GFP+ rep 3 [1, 3]: 24.6%
effect ([1]; Yes/No call from z-scoreMRSA+): No
hit [1, 4]: No
z-scoreMRSA+ mean [1, 5]: 0.80
z-scoreMRSA+ rep 1 [1, 5]: 0.38
z-scoreMRSA+ rep 2 [1, 5]: 1.09
z-scoreMRSA+ rep 3 [1, 5]: 0.92
cell count rep 1 [2, 6]: 27129
cell count rep 2 [2, 6]: 33773
cell count rep 3 [2, 6]: 22823
cell death ([2]; Yes/No call from z-scoreHeLa): No
z-scoreHeLa mean [2, 7]: 0.57
z-scoreHeLa rep 1 [2, 7]: -0.52
z-scoreHeLa rep 2 [2, 7]: 1.46
z-scoreHeLa rep 3 [2, 7]: 0.76

COc1ccc(-c2oc3ncnc(N)c3c2-c2ccc(NC(=O)Nc3cc(C(F)(F)F)ccc3F)cc2)cc1 [GW768505A]
%GFP+ rep 1 [1, 8]: 11.3%
%GFP+ rep 2 [1, 8]: 13.4%
%GFP+ rep 3 [1, 8]: 12.4%
effect ([1]; Yes/No call from z-scoreMRSA+): No
hit [1, 4]: No
z-scoreMRSA+ mean [1, 5]: -0.55
z-scoreMRSA+ rep 1 [1, 5]: -0.60
z-scoreMRSA+ rep 2 [1, 5]: -0.0319
z-scoreMRSA+ rep 3 [1, 5]: -1.03
cell count rep 1 [2, 9]: 2576
cell count rep 2 [2, 9]: 4064
cell count rep 3 [2, 9]: 5860
cell death ([2]; Yes/No call from z-scoreHeLa): No
z-scoreHeLa mean [2, 7]: -0.89
z-scoreHeLa rep 1 [2, 7]: -1.99
z-scoreHeLa rep 2 [2, 7]: -0.15
z-scoreHeLa rep 3 [2, 7]: -0.53

Nc1ncnc2occ(-c3ccc(NC(=O)Nc4cc(C(F)(F)F)ccc4F)cc3)c12 [GW770249X]
%GFP+ rep 1 [1, 8]: 10.7%
%GFP+ rep 2 [1, 8]: 11.5%
%GFP+ rep 3 [1, 8]: 11.5%
effect ([1]; Yes/No call from z-scoreMRSA+): No
hit [1, 4]: No
z-scoreMRSA+ mean [1, 5]: -0.92
z-scoreMRSA+ rep 1 [1, 5]: -0.79
z-scoreMRSA+ rep 2 [1, 5]: -0.67
z-scoreMRSA+ rep 3 [1, 5]: -1.30
cell count rep 1 [2, 9]: 2336
cell count rep 2 [2, 9]: 2249
cell count rep 3 [2, 9]: 3259
cell death ([2]; Yes/No call from z-scoreHeLa): No
z-scoreHeLa mean [2, 7]: -1.83
z-scoreHeLa rep 1 [2, 7]: -2.21
z-scoreHeLa rep 2 [2, 7]: -1.53
z-scoreHeLa rep 3 [2, 7]: -1.77

Cc1c2ccc(N(C)c3ccnc(Nc4cccc(S(N)(=O)=O)c4)n3)cc2nn1C [GW771127A]
%GFP+ rep 1 [1, 3]: 14.2%
%GFP+ rep 2 [1, 3]: 13.8%
%GFP+ rep 3 [1, 3]: 15.3%
z-scoreMRSA+ mean [1, 10]: -1.32
z-scoreMRSA+ rep 1 [1, 10]: -1.16
z-scoreMRSA+ rep 2 [1, 10]: -1.42
z-scoreMRSA+ rep 3 [1, 10]: -1.37
hit [1, 11]: No
effect [1, 12]: No
cell count rep 1 [2, 6]: 10020
cell count rep 2 [2, 6]: 29599
cell count rep 3 [2, 6]: 33795
z-scoreHeLa mean [2, 13]: -1.19
z-scoreHeLa rep 1 [2, 13]: -1.53
z-scoreHeLa rep 2 [2, 13]: -0.97
z-scoreHeLa rep 3 [2, 13]: -1.07
cell death [2, 14]: No

Cc1ccc(NC(=O)c2ccnc(N3CCN(C)CC3)c2)cc1-c1ccc(C(=O)NCC2CC2)cc1 [GW775604X]
%GFP+ rep 1 [1, 3]: 22.9%
%GFP+ rep 2 [1, 3]: 25.3%
%GFP+ rep 3 [1, 3]: 27.3%
z-scoreMRSA+ mean [1, 10]: 1.46
z-scoreMRSA+ rep 1 [1, 10]: 1.10
z-scoreMRSA+ rep 2 [1, 10]: 1.61
z-scoreMRSA+ rep 3 [1, 10]: 1.66
effect [1, 15]: No
hit [1, 11]: No
effect [1, 12]: No
z-scoreMRSA+ mean ([1]; PKIS compound screen): -0.35
z-scoreMRSA+ rep 1 ([1]; PKIS compound screen): -0.34
z-scoreMRSA+ rep 2 ([1]; PKIS compound screen): -0.43
z-scoreMRSA+ rep 3 ([1]; PKIS compound screen): -0.27
%GFP+ rep 1 [1, 8]: 25.3%
%GFP+ rep 2 [1, 8]: 23.8%
%GFP+ rep 3 [1, 8]: 25.8%
cell count rep 1 [2, 6]: 20638
cell count rep 2 [2, 6]: 17919
cell count rep 3 [2, 6]: 18503
z-scoreHeLa mean [2, 13]: -0.99
z-scoreHeLa rep 1 [2, 13]: -1.62
z-scoreHeLa rep 2 [2, 13]: -1.26
z-scoreHeLa rep 3 [2, 13]: -0.08
cell death [2, 15]: No
cell death [2, 14]: No
z-scoreHeLa mean ([2]; PKIS compound screen): 0.09
z-scoreHeLa rep 1 ([2]; PKIS compound screen): -0.44
z-scoreHeLa rep 2 ([2]; PKIS compound screen): 1.03
z-scoreHeLa rep 3 ([2]; PKIS compound screen): -0.32
cell count rep 1 [2, 9]: 5307
cell count rep 2 [2, 9]: 7562
cell count rep 3 [2, 9]: 5095
